Results: PMC5041959, “A high-content EMT screen identifies multiple receptor tyrosine kinase inhibitors with activity on TGFβ receptor” (Oncotarget, 2016)
Read-outs that look alike come from different tables or passages of the source.

How the values were obtained:
TGFBR2 = TGFBR2 (Homo sapiens, UniProt P37173); assay: Biochemical kinase profiling (33PanQinase radiometric assay)
PDGFRB = PDGFRB (Homo sapiens, UniProt P09619); assay: as above
EGFR = EGFR (Homo sapiens, UniProt P00533); assay: as above
ROCK = ROCK cellular assay (MLC Thr18/Ser19 phosphorylation ELISA in A7r5 cells); format: cell-based, rat; conditions: Rattus norvegicus, 1.5 h, 90 min compound
FGFR2 = FGFR2 (Homo sapiens, UniProt P21802); assay: Biochemical kinase profiling (33PanQinase radiometric assay)
FGFR3 = FGFR3 (Homo sapiens, UniProt P22607); assay: as above
TGFBR1 = target: T1, TGFBR1 (Homo sapiens, UniProt P36897); assay: as above
T1 sequence (P36897 34-503): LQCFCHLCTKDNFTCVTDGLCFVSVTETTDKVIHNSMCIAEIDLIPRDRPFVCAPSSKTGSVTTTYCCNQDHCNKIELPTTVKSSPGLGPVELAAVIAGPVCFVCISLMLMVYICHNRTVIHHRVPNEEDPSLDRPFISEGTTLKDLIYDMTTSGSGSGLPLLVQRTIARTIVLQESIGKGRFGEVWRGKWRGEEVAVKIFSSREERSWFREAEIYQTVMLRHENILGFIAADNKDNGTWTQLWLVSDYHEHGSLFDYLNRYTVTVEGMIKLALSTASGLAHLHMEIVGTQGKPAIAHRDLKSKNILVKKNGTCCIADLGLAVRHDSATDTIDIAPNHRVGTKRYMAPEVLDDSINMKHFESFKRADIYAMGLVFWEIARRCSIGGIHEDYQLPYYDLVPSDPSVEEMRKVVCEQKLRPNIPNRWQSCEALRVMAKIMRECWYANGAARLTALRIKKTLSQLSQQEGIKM

FGFR1 = FGFR1 (Homo sapiens, UniProt P11362); assay: as above
NMuMG cells = assay: High-content microscopy EMT screen in TGFβ-treated NMuMG cells (FA, SF, FN, cell count); format: cell-based, murine; conditions: for Emax: read-out: Emax (maximal effect on cell count)
ROCK1 = ROCK1 (Homo sapiens, UniProt Q13464); assay: Biochemical kinase profiling (33PanQinase radiometric assay)
Chain of ROCK1 (Q13464 whole entry): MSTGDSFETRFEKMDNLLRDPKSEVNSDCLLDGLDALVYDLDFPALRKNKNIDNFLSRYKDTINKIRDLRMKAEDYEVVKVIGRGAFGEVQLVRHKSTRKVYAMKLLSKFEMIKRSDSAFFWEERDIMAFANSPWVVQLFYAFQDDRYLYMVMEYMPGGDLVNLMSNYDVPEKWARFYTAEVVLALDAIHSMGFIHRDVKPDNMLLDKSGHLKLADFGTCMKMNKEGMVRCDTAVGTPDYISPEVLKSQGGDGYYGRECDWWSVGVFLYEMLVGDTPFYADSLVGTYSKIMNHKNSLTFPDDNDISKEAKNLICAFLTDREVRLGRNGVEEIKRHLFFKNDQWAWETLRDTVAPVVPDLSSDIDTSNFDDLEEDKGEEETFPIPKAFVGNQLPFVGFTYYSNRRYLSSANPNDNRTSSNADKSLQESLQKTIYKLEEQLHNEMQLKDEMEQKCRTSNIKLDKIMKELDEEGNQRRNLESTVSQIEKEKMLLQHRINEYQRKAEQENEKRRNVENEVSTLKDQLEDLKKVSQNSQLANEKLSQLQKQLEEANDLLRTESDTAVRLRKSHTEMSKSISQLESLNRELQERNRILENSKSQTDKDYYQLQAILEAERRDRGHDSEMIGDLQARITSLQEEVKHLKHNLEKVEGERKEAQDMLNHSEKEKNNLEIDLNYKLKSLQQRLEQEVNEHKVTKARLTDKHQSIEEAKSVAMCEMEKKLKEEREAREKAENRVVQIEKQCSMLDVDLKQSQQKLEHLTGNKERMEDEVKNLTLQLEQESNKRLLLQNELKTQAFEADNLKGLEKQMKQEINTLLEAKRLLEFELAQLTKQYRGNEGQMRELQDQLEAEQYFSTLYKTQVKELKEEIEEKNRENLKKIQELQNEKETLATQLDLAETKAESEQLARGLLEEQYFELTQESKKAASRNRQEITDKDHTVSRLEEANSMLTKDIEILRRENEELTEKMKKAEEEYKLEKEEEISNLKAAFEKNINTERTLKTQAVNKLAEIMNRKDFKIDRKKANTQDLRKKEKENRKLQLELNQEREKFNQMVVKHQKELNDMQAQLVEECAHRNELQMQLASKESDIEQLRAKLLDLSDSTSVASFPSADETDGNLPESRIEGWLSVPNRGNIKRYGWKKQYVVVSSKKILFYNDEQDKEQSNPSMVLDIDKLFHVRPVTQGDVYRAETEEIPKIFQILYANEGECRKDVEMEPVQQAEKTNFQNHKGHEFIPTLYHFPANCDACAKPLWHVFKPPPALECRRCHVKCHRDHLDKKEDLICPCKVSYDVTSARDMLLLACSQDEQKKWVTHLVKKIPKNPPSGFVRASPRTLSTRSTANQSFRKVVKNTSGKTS

ROCK2 = ROCK2 (Homo sapiens, UniProt O75116); assay: as above
Chain of ROCK2 (O75116 whole entry): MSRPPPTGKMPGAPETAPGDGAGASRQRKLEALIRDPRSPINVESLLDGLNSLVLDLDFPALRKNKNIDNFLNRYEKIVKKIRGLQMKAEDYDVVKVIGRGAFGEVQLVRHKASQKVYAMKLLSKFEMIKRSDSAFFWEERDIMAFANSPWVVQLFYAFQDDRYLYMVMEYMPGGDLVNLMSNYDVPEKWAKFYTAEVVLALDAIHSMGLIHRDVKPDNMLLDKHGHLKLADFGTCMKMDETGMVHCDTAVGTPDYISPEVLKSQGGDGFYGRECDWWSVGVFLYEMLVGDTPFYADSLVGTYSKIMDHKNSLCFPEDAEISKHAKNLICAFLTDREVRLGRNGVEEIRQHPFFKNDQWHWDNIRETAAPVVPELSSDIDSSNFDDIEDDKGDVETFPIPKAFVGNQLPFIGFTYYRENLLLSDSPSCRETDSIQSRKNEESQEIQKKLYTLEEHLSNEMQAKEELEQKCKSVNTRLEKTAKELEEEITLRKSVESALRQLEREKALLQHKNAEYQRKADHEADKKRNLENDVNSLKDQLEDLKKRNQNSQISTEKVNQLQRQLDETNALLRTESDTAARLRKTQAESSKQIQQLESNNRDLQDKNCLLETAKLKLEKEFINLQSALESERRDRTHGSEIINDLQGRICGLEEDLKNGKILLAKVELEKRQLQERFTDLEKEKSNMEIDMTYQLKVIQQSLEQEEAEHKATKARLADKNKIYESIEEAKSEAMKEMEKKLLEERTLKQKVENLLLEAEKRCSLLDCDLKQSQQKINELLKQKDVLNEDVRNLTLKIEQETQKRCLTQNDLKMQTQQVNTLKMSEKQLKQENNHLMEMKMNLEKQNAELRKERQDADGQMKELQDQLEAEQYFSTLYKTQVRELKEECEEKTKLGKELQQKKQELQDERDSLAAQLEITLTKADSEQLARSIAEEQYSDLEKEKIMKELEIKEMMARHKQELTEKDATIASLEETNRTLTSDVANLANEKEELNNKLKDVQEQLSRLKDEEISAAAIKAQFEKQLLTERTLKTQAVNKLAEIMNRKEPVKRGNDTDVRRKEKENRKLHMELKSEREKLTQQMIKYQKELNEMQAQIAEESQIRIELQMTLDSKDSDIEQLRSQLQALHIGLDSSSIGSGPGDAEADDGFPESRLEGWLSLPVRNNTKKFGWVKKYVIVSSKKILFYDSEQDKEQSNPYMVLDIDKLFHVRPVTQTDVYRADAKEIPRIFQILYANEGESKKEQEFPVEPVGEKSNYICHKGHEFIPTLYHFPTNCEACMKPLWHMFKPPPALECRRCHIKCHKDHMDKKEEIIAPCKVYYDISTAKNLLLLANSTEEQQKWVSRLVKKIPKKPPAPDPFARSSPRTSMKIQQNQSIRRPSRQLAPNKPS

SRC = SRC (Homo sapiens, UniProt P12931); assay: as above
Chain of SRC (P12931 whole entry): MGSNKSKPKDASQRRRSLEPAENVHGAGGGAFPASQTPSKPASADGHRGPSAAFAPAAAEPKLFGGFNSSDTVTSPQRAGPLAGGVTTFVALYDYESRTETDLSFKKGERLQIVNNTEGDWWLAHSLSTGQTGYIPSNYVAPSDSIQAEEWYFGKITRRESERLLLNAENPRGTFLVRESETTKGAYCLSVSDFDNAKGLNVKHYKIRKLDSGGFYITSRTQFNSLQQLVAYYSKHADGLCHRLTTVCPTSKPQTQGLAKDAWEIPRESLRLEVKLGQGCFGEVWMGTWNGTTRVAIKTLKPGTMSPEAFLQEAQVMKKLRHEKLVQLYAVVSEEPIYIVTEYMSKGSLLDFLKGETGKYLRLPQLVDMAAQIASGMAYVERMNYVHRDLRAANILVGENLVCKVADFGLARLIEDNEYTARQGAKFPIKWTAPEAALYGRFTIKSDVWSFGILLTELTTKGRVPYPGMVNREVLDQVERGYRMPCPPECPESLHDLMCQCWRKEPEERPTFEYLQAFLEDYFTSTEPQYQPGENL

FGFR4 = FGFR4 (Homo sapiens, UniProt P22455); assay: as above
PDGFRA = PDGFRA (Homo sapiens, UniProt P16234); assay: as above
Chain of PDGFRA (P16234 24-1089): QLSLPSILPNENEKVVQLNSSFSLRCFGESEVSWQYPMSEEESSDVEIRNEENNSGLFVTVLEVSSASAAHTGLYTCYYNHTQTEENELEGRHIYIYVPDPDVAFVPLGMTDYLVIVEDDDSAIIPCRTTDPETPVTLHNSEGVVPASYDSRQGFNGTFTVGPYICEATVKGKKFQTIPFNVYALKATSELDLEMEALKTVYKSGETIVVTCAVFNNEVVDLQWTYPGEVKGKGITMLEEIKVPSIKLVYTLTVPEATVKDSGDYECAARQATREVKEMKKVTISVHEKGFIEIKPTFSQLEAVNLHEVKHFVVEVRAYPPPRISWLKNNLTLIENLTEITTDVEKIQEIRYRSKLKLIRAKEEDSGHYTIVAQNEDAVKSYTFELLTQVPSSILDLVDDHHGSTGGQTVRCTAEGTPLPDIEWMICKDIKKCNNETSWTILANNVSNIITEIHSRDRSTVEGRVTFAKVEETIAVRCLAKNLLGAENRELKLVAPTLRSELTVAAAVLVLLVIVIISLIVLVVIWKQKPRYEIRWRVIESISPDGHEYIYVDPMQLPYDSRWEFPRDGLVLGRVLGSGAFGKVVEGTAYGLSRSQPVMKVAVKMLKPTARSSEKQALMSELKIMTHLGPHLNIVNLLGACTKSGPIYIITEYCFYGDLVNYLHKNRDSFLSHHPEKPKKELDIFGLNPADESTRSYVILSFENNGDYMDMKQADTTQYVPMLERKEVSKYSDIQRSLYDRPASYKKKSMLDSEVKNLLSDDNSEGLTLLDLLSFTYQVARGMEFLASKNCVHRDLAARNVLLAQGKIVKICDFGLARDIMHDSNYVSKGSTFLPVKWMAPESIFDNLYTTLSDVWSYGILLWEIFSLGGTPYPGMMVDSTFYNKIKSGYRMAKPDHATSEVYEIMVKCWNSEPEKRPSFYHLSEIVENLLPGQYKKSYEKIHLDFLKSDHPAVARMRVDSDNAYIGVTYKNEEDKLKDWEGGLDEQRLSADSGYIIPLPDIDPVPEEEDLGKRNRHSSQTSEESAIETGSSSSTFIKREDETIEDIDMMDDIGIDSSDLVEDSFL

Py2T cells = assay: High-content microscopy EMT assay in TGFβ-treated Py2T breast cancer cells; format: cell-based, murine; conditions: Py2T; for FA IC50 (focal adhesions) / FN IC50 (fibronectin patches) / SF IC50 (stress fibers): TGFβ plus compound, 4 days; for Emax (maximal effect on cell count): compared to reference 10 μM SB-431542 = 100%
[1] = test system: SMAD3 phosphorylation (TGFBR activity); assay: Quantification of SMAD3 phosphorylation in TGFβ-treated NMuMG cells (immunoblot, LI-COR); format: cell-based, murine; conditions: one day TGFβ plus inhibitor
Method: NMuMG cells plated the day before were treated for one day with TGFβ and DMSO or an inhibitor as described in the figure legends. Cells were washed with PBS and lyzed in RIPA buffer (150 mM NaCl, 2 mM MgCl, 2 mM CaCl2, 0.5% Na-deoxycholate, 10% glycerol, 1% NP-40, 0.1% SDS, 50 mM Tris pH8 supplementary with 1 mM DTT, 10 mM NaF, 1 mM sodium orthovanadate and protease inhibitor cocktail (Roche)). The proteins were resolved using SDS-PAGE and transferred to PVDF membrane. For quantitative analysis of SMAD phosphorylation, the membrane was probed with p-SMAD2/3 and GAPDH specific primary antibodies followed by fluorescent secondary antibodies (LI-COR Biosciences). The signal was captured and quantified with the Odyssey CLx Imaging system and ImageJ software form 3 independent experiments.

[2] = Mus musculus, 96 h, NMuMG, TGFβ1 2 ng/ml plus compound, 4 days, parameter decreased by 50%, read-out: FN IC50 (fibronectin patch formation)
[3] = Mus musculus, 96 h, NMuMG, TGFβ1 2 ng/ml plus compound, 4 days, parameter decreased by 50%, read-out: SF IC50 (stress fibers)
[4] = Mus musculus, NMuMG, cell count decreased by 50% compared to DMSO control, read-out: Tox IC50
[5] = NMuMG, TGFβ1 2 ng/ml plus compound, 4 days, parameter decreased by 50%
[6] = NMuMG, compared to reference 10 μM SB-431542 = 100%
[7] = Mus musculus, cell count decreased by 50% compared to DMSO control, read-out: Tox IC50
[8] = Mus musculus, read-out: CCI IC50 (cell count increase)
[9] = read-out: TGFBR2 IC50, ATP at apparent Km
[10] = read-out: FGFR2 IC50, ATP at apparent Km
[11] = read-out: FGFR3 IC50, ATP at apparent Km
[12] = read-out: TGFBR1 IC50, ATP at apparent Km
[13] = NMuMG, cell count decreased by 50% compared to DMSO control, read-out: Tox IC50
[14] = read-out: ROCK1 IC50, ATP at apparent Km
[15] = read-out: ROCK2 IC50, ATP at apparent Km
[16] = read-out: FGFR4 IC50, ATP at apparent Km

Chain of TGFBR2 (P37173 23-567): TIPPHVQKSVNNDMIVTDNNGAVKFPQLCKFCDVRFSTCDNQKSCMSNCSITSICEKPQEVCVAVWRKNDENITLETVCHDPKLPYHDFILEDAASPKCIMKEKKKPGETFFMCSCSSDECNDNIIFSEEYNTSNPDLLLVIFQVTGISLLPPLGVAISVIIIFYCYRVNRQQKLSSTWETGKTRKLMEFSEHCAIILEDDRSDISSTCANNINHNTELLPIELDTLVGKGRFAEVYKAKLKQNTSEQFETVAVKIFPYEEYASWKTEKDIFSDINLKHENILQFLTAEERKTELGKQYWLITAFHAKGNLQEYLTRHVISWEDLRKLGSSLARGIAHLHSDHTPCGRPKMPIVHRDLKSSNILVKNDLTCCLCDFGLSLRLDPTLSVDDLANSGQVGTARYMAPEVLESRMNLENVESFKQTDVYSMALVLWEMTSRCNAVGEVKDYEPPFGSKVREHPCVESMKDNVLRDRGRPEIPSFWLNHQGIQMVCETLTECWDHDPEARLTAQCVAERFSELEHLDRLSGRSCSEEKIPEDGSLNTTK

IC50 (FGFR2) | IC50 (FGFR3) | IC50 (TGFBR1) | IC50 (NMuMG cells; [2]) | IC50 (NMuMG cells; [3]) | FA IC50 (focal adhesion formation) (NMuMG cells; [5]) | IC50 (FGFR4) | FA IC50 (focal adhesions) (Py2T cells) | FN IC50 (fibronectin patches) (Py2T cells) | SF IC50 (stress fibers) (Py2T cells) | SMILES | IC50 (TGFBR2) | IC50 (PDGFRB) | IC50 (NMuMG cells; [4]) | Emax (maximal effect on cell count) (NMuMG cells; [6]) | IC50 (ROCK1) | IC50 (ROCK2) | IC50 (SRC) | IC50 (PDGFRA) | IC50 (Py2T cells; [7]) | Emax (maximal effect on cell count) (Py2T cells) | other results
– | – | – | – | – | – | – | n.m. | n.m. | n.m. | CCN(CC)CCCCNc1ncc2cc(-c3c(Cl)cccc3Cl)c(NC(=O)NC(C)(C)C)nc2n1 [PD-161570] | – | – | – | 50.8% | – | – | – | – | – | 43% | IC50 (TGFBR2; [9]): 1280 nM; IC50 (PDGFRB; read-out: PDGFRB IC50, ATP at apparent Km): 95.8 nM; IC50 (FGFR2; [10]): 6.5 nM; IC50 (Py2T cells; cell count decreased by 50% compared to DMSO control, read-out: Tox IC50): 479 nM; IC50 (Py2T cells; compared to 10 μM SB-431542, read-out: CCI IC50 (cell count increase)): 232 nM; IC50 (FGFR3; [11]): 27.2 nM; IC50 (TGFBR1; [12]): 44.9 nM; IC50 (NMuMG cells; NMuMG, TGFβ1 2 ng/ml plus compound, 4 days, parameter decreased by 50%, read-out: FA IC50 (focal adhesion formation)): 337 nM; IC50 (NMuMG cells; NMuMG, TGFβ1 2 ng/ml plus compound, 4 days, parameter decreased by 50%, read-out: FN IC50 (fibronectin patch formation)): 1040 nM; IC50 (NMuMG cells; NMuMG, TGFβ1 2 ng/ml plus compound, 4 days, parameter decreased by 50%, read-out: SF IC50 (stress fibers)): 702 nM; IC50 (NMuMG cells; [13]): 4970 nM; IC50 (NMuMG cells; NMuMG, cell count increased by 50% compared to 100% with 10 μM SB-431542, read-out: CCI IC50 (cell count increase)): 525 nM; IC50 (NMuMG cells; NMuMG, mean of IC50 values obtained for FA, SF, FN, read-out: EMT (FA/SF/FN) combined IC50): 694 nM; IC50 (ROCK1; [14]): > 10000 nM; IC50 (ROCK2; [15]): > 10000 nM; IC50 (SRC; read-out: SRC IC50, ATP at apparent Km): 5.2 nM; IC50 (FGFR4; [16]): 667 nM; IC50 (PDGFRA; read-out: PDGFRA IC50, ATP at apparent Km): 2370 nM
1.8 nM | 9 nM | 6.8 nM | 39 nM | 79 nM | – | 55.5 nM | n.m. | n.m. | n.m. | CCN(CC)CCOc1ccc(Nc2ncc3cc(-c4c(Cl)cccc4Cl)c(=O)n(C)c3n2)cc1 [PD-166285] | – | – | 229 nM | – | – | – | – | – | 138 nM | n.m. | IC50 (TGFBR2; TGFBR2 IC50, ATP at apparent Km): 137 nM; IC50 (NMuMG cells; Mus musculus, 96 h, NMuMG, TGFβ1 2 ng/ml plus compound, 4 days, parameter decreased by 50%, read-out: FA IC50 (focal adhesion formation)): 27 nM; IC50 (NMuMG cells; Mus musculus, NMuMG, mean of IC50 values obtained for FA, SF, FN, read-out: EMT (FA/SF/FN) combined IC50): 48.3 nM; IC50 (NMuMG cells; [8]): 17 nM; Emax (NMuMG cells; Mus musculus): 24%
– | – | – | – | – | n.m. | – | – | – | – | COc1cc(OC)cc(-c2cc3cnc(N)nc3nc2NC(=O)NC(C)(C)C)c1 [PD-166866] | – | – | – | n.m. | – | – | – | – | – | – | IC50 (TGFBR2; [9]): > 10000 nM; IC50 (FGFR2; [10]): 10.2 nM; IC50 (FGFR3; [11]): 49.3 nM; IC50 (TGFBR1; [12]): > 10000 nM; IC50 (FGFR1; read-out: FGFR1 IC50, ATP at apparent Km): 22.5 nM; FN IC50 (fibronectin patch formation) (NMuMG cells; [5]): n.m.; SF IC50 (stress fibers) (NMuMG cells; [5]): n.m.; IC50 (NMuMG cells; [13]): 3360 nM; CCI IC50 (cell count increase) (NMuMG cells; NMuMG, cell count increased by 50% compared to 100% with 10 μM SB-431542): n.m.; IC50 (ROCK1; [14]): > 10000 nM; IC50 (ROCK2; [15]): > 10000 nM; IC50 (FGFR4; [16]): 492 nM

Continued, compound first:

SMILES | IC50 (FGFR2) | IC50 (FGFR3) | IC50 (TGFBR1) | IC50 (NMuMG cells; [2]) | IC50 (NMuMG cells; [3]) | FA IC50 (focal adhesion formation) (NMuMG cells; [5]) | IC50 (FGFR4) | FA IC50 (focal adhesions) (Py2T cells) | FN IC50 (fibronectin patches) (Py2T cells) | SF IC50 (stress fibers) (Py2T cells) | IC50 (TGFBR2) | IC50 (PDGFRB) | IC50 (NMuMG cells; [4]) | Emax (maximal effect on cell count) (NMuMG cells; [6]) | IC50 (ROCK1) | IC50 (ROCK2) | IC50 (SRC) | IC50 (PDGFRA) | IC50 (Py2T cells; [7]) | Emax (maximal effect on cell count) (Py2T cells) | other results
COCCOc1ccc2c(c1)ncn2-c1ccc2cccc(N3CCC(N)CC3)c2n1 [CP673451] | 1010 nM | 9090 nM | > 10000 nM | 2050 nM | 2560 nM | n.m. | > 10000 nM | – | – | – | > 10000 nM | 1.9 nM | 3590 nM | n.m. | 3370 nM | 1000 nM | 1070 nM | 618 nM | – | – | IC50 (EGFR): 2120 nM; IC50 (ROCK): 1500 nM; IC50 (FGFR1): 5630 nM
O=c1[nH]c(=O)n([C@H]2C[C@H](O)[C@@H](CO)O2)cc1I [Idoxuridine] | – | – | – | 948 nM | 1170 nM | – | – | n.m. | n.m. | n.m. | – | – | > 25000 nM | – | – | – | – | – | 6350 nM | n.m. | SMAD3 phosphorylation (p-SMAD3/GAPDH) [1]: unchanged; IC50 (NMuMG cells; [8]): 291 nM; Emax (NMuMG cells; Mus musculus): 12.9%
CCN(CC)CCCCNc1ncc2cc(-c3cc(OC)cc(OC)c3)c(NC(=O)NC(C)(C)C)nc2n1 [PD-173074] | – | – | > 10000 nM | – | – | n.m. | 418 nM | – | – | – | > 10000 nM | 3390 nM | 3220 nM | – | > 10000 nM | > 10000 nM | 6730 nM | > 10000 nM | – | – | Emax (maximal effect on cell count) (NMuMG cells): n.m.; FN IC50 (fibronectin patch formation) (NMuMG cells; [5]): n.m.; SF IC50 (stress fibers) (NMuMG cells; [5]): n.m.
